MIC and MBC data for 3 compounds are collected here from publication PMC12250302, “Synthesis, Antimicrobial Activities, and Model of Action of Novel Tetralone Derivatives Containing Aminoguanidinium Moiety” (International Journal of Molecular Sciences, 2025).

Holding throughout (assay): MIC and MBC testing, broth microdilution
For orientation: Dilution methods test growth across graded concentrations, often in twofold steps.

In one assay the test system is E. coli ATCC 25922. Type of assay: cell-based, Escherichia coli. From the text:
(§1) The minimum inhibitory concentrations (MICs) and minimum bactericidal concentrations (MBCs) of the synthesized compounds effective against ESKAPE strains, S. aureus clinical isolates, and MRSA were investigated by the broth dilution method. Levofloxacin is a broad-spectrum antibacterial agent that is widely used in the treatment of ESKAPE infections. Therefore, levofloxacin was selected as the positive control for the preliminary activity screening. DMSO (0.1%) was selected as the negative control.
(§2) The minimum inhibitory concentration (MIC) of all synthesized compounds was tested by the broth microdilution method. In brief, compounds dissolved in DMSO were diluted twice continuously in a 96-well plate with MH broth. The ESKAPE pathogens (E. coli ATCC 25922, S. aureus ATCC 29213, K. pneumoniae ATCC 700603, A. baumannii ATCC 19606, P. aeruginosa ATCC 27853, and E. faecium ATCC 35667), clinical S. aureus isolates (LMY45, LMY46, LMY47, and LMY48) and methicillin-resistant Staphylococcus aureus (MRSA-1 and MRSA-2) were cultured in MH broth to logarithmic growth phase and then diluted to 1 × 10^6 CFU/mL in MH broth. Subsequently, the diluted bacterial solution was mixed with the diluted compound solution in a 96-well plate and incubated at 37 °C for a duration of 18 h. The MIC of the compounds was recorded as the lowest concentration at which no visible growth was observed. […] Each concentration was replicated thrice.

For another assay, the system named is S. aureus ATCC 29213. Type of assay: cell-based, Staphylococcus aureus. Conditions: S. aureus ATCC 29213; for MIC: 18 h.
From the text: as §1, §2

Assay [1] relates to K. pneumoniae ATCC 700603. Type of assay: cell-based, Klebsiella pneumoniae. Conditions: Klebsiella pneumoniae; for MIC: ATCC700603, 18 h, read-out: MIC; for MBC: ATCC700603, read-out: MBC.
From the text: as §1, §2

The subject of assay [2] is clinical S. aureus isolate LMY48. Type of assay: cell-based, Staphylococcus aureus. The following applies: LMY48; for MIC: 18 h. How it is done: (§3) Furthermore, the MBC values of the compounds were detected.
as §2, with “h.” for “h. The MIC of the compounds was recorded as the lowest concentration at which no visible growth was observed.”

For a further assay, the system named is MRSA-2. Type of assay: cell-based, Staphylococcus aureus. Conditions: MRSA-2; for MIC: 18 h. Here is the method: as §3
as §2, with “h.” for “h. The MIC of the compounds was recorded as the lowest concentration at which no visible growth was observed.”

In assay [3] the test system is clinical S. aureus isolate LMY47. Type of assay: cell-based, Staphylococcus aureus. Conditions: LMY47; for MIC: 18 h. How it is done:
as §3
as §2, with “h.” for “h. The MIC of the compounds was recorded as the lowest concentration at which no visible growth was observed.”

Assay [4] deals with clinical S. aureus isolate LMY46. Type of assay: cell-based, Staphylococcus aureus. Conditions: LMY46; for MIC: 18 h. Here is the method: as §3
as §2, with “h.” for “h. The MIC of the compounds was recorded as the lowest concentration at which no visible growth was observed.”

The subject of a further assay is MRSA-1. Type of assay: cell-based, Staphylococcus aureus. Conditions: MRSA-1; for MIC: 18 h. Here is the method: as §3
as §2, with “h.” for “h. The MIC of the compounds was recorded as the lowest concentration at which no visible growth was observed.”

For assay [5], the system named is clinical S. aureus isolate LMY45. Type of assay: cell-based, Staphylococcus aureus. Conditions: LMY45; for MIC: 18 h. Here is the method: as §3
as §2, with “h.” for “h. The MIC of the compounds was recorded as the lowest concentration at which no visible growth was observed.”

The subject of the next assay is E. faecium ATCC 35667. Type of assay: cell-based, Enterococcus faecium. Conditions: E. faecium ATCC 35667; for MIC: 18 h.
From the text: as §1, §2

Another assay has as its system P. aeruginosa ATCC 27853. Type of assay: cell-based, Pseudomonas aeruginosa.
From the text: as §1, §2

Another assay deals with A. baumannii ATCC 19606. Type of assay: cell-based, Acinetobacter baumannii.
From the text: as §1, §2

Where [6] appears, read: Escherichia coli, ATCC25922, 18 h, read-out: MIC.
The mark [7] stands for this setting: Escherichia coli, ATCC25922, read-out: MBC.
The mark [8] stands for this setting: Staphylococcus aureus, ATCC29213, read-out: MIC.
Setting [9] is: Staphylococcus aureus, ATCC29213, read-out: MBC.
Setting [10] is: Staphylococcus aureus, read-out: MIC.
Where [11] appears, read: Staphylococcus aureus, read-out: MBC.
[12] abbreviates: Enterococcus faecium, ATCC35667, read-out: MIC.
[13] abbreviates: Enterococcus faecium, ATCC35667, read-out: MBC.
The mark [14] stands for this setting: Pseudomonas aeruginosa, ATCC27853, 18 h, read-out: MIC.
The mark [15] stands for this setting: Pseudomonas aeruginosa, ATCC27853, read-out: MBC.
Setting [16] is: Acinetobacter baumannii, ATCC19606, 18 h, read-out: MIC.
Where [17] appears, read: Acinetobacter baumannii, ATCC19606, read-out: MBC.

≈ marks a conversion by molar mass, not a printed value. Read-outs that look alike come from different tables or passages of the source.

Consider `[H]/N=C(\N)NN=C1CCCc2cc(OCc3ccc(F)cc3F)ccc21` [Compound 1D, (E)-2-(6-((2,4-difluorobenzyl)oxy)-3,4-dihydronaphthalen-1(2H)-ylidene)hydrazine-1-carboximidamide], for which the minimum inhibitory concentration (MIC) with E. coli ATCC 25922 (setting [6]) was 8 µg/mL (≈ 23.2 µM); with S. aureus ATCC 29213 (setting [8]) it was 2 µg/mL (≈ 5.81 µM); in [1] it was 16 µg/mL (≈ 46.5 µM); in assay [2] (setting [10]), 2 µg/mL (≈ 5.81 µM); in the assay on MRSA-2 (setting [10]), 2 µg/mL (≈ 5.81 µM); in assay [3] (setting [10]) it was 2 µg/mL (≈ 5.81 µM). For the same compound, the MIC came out at 4 µg/mL (≈ 11.6 µM) in assay [4] (setting [10]); 2 µg/mL (≈ 5.81 µM) in the assay with MRSA-1 (setting [10]); 2 µg/mL (≈ 5.81 µM) in assay [5] (setting [10]); 4 µg/mL (≈ 11.6 µM) in the assay on E. faecium ATCC 35667 (setting [12]); 32 µg/mL (≈ 92.9 µM) with P. aeruginosa ATCC 27853 (setting [14]); 8 µg/mL (≈ 23.2 µM) with A. baumannii ATCC 19606 (setting [16]). Also, the minimal bactericidal concentration (MBC) with E. coli ATCC 25922 (setting [7]) was found to be 8 µg/mL (≈ 23.2 µM); in the assay on S. aureus ATCC 29213 (setting [9]), 8 µg/mL (≈ 23.2 µM); in assay [1], 16 µg/mL (≈ 46.5 µM); in assay [2] (setting [11]), 4 µg/mL (≈ 11.6 µM); in the assay on MRSA-2 (setting [11]), 32 µg/mL (≈ 92.9 µM); in [3] (setting [11]) it was 8 µg/mL (≈ 23.2 µM). Besides, the MBC was found to be 32 µg/mL (≈ 92.9 µM) in [4] (setting [11]); 32 µg/mL (≈ 92.9 µM) in the assay on MRSA-1 (setting [11]); 4 µg/mL (≈ 11.6 µM) in [5] (setting [11]); 16 µg/mL (≈ 46.5 µM) in the assay with E. faecium ATCC 35667 (setting [13]); 32 µg/mL (≈ 92.9 µM) with P. aeruginosa ATCC 27853 (setting [15]); 8 µg/mL (≈ 23.2 µM) in the assay on A. baumannii ATCC 19606 (setting [17]).

Take `C[C@H]1COc2c(N3CCN(C)CC3)c(F)cc3c(=O)c(C(=O)O)cn1c23` [Levofloxacin, reference compound]: the MIC (in the assay with E. coli ATCC 25922 (setting [6]); in the assay with S. aureus ATCC 29213 (setting [8]); in [1]; in the assay with E. faecium ATCC 35667 (setting [12]); in the assay with P. aeruginosa ATCC 27853 (setting [14]); in the assay with A. baumannii ATCC 19606 (setting [16])) was at most 1 µg/mL each time. Further, the minimum bactericidal concentration (MBC) with E. coli ATCC 25922 (setting [7]) is at most 1 µg/mL; in the assay on S. aureus ATCC 29213 (setting [9]), at most 1 µg/mL; in [1] it was 4 µg/mL (≈ 11.1 µM); with E. faecium ATCC 35667 (setting [13]), 2 µg/mL (≈ 5.53 µM); with P. aeruginosa ATCC 27853 (setting [15]), 2 µg/mL (≈ 5.53 µM); in the assay with A. baumannii ATCC 19606 (setting [17]), 2 µg/mL (≈ 5.53 µM).

Regarding “(E)-2-(6-(4-isopropylphenoxy)-3,4-dihydronaphthalen-1(2H)-ylidene)hydrazine-1-carboximidamide [Compound 1X]”, the MBC stood at 8 µg/mL with E. coli ATCC 25922; 4 µg/mL with S. aureus ATCC 29213; 8 µg/mL in [2]; 4 µg/mL in the assay on MRSA-2; 8 µg/mL in assay [3]; 2 µg/mL in assay [4]. In addition, the MBC in the assay with MRSA-1 was 8 µg/mL; in [5], 4 µg/mL; in the assay on E. faecium ATCC 35667, 4 µg/mL; against P. aeruginosa ATCC 27853 it was above 32 µg/mL; with A. baumannii ATCC 19606 it was 8 µg/mL. In addition, the minimum inhibitory concentration (MIC) with E. coli ATCC 25922 (18 h) was found to be 4 µg/mL; against S. aureus ATCC 29213, 2 µg/mL; in assay [2], 2 µg/mL; in the assay on MRSA-2, 1 µg/mL; in assay [3], 2 µg/mL; in assay [4], 2 µg/mL. The MIC with MRSA-1 was 4 µg/mL; in [5], 2 µg/mL; in the assay on E. faecium ATCC 35667, 2 µg/mL; against P. aeruginosa ATCC 27853 (18 h), 32 µg/mL; in the assay on A. baumannii ATCC 19606 (18 h), 4 µg/mL.

What is called MIC is the lowest concentration that inhibits growth of the organism. What is called MBC is the lowest tested concentration that kills the bacteria rather than only halting them.
